For series [1], the system named is procoagulant activities of viper venoms (E. ocellatus, E. carinatus, B. asper, D. russelii). As to the kind of experiment: Plasma clotting assay, neutralization of procoagulant venom activity. Particulars: for IC50: range across all venoms, 100 ng venom, bovine plasma, read-out: IC50, inhibition of procoagulant activity. It counts as biochemical. The text has this: FIG. 11. SVMP-inhibitors neutralize the in vitro procoagulant activities of several geographically distinct viper venoms. […] The data presented represents the maximum clotting velocity, calculated as the maximum of the first derivative of each clotting curve, from triplicate independent repeat experiments with SEMs, where each technical repeat represents the mean of n≥2 technical replicates. EOC, E. ocellatus; ECAR, E. carinatus; BAS, Bothrops asper, BAR, Bitis arietans; DRUS, Daboia russelii. (B) Neutralization of procoagulant venom activity by four SVMP-inhibitors across four drug concentrations (150 μM to 150 nM). The data is expressed as the maximum clotting velocity at each dose. The negative (PBS) and positive (venom-only) controls are presented as intervals (bottom dashed and top dashed lines, respectively), with the latter representing the mean maximum clotting velocity in these samples±SEM. The data represent triplicate independent repeats with SEMs, where each technical repeat represents the mean of n≥2 technical replicates. Note the different y-axis scales.
Since SVMPs are key toxins associated with causing coagulopathy, we next investigated whether the same peptidomimetic and metal chelating inhibitors could also neutralize the procoagulant bioactivities of viper venoms. To do so, we used a validated kinetic absorbance-based assay monitoring plasma clotting^35 in the presence or absence of venoms and inhibitors (FIG. 11).
We used a previously developed plasma clotting assay^35 to measure venom-induced coagulation. Briefly, 100 ng of each venom was incubated at 37° C. for 30 min in the presence or absence of inhibitors (150 μM to 150 nM final concentrations). The final reaction consisted of 10 μl venom±inhibitors in PBS, 20 μl 20 mM CaCl2), and 20 μl citrated bovine plasma (VWR). The samples were pipetted in triplicate into 384-well plates, and absorbance monitored at 595 nm for 2 h at 25° C. on an Omega FLUOstar instrument. We calculated the maximum clotting velocity of each of the curves as per clot waveform analysis^67, by calculating the maximum of the first derivative. The means of at least three independent experimental runs for each condition were plotted at each inhibitor concentration with SEMs.

The subject of series [2] is D. russelii venom coagulation-related activities. As to the kind of experiment: Plasma clotting assay, whole D. russelii venom. Type of series: biochemical, Daboia russelii. Particulars: 150 μM to 150 nM. The method, then:
FIG. 12. […] The data is plotted separately for ‘very fast coagulation’, ‘medium coagulation’ and ‘anticoagulation’, based on the slopes of the 0-5 min and 0-20 min readings, and the single endpoint reading at 180 min. The tested inhibitor concentrations are presented alongside the chromatograms. […] The data is presented as the maximal clotting velocity at each concentration, and represents means of triplicate independent repeats with SEMs, where each technical repeat represents the mean of n≥2 technical replicates. The venom-only control (top dashed lines) and the negative control (bottom dashed lines) are presented as intervals and represent the average±SEM observed for the venom-only and PBS controls across all datasets and replicates.
We used a previously developed plasma clotting assay^35 to measure venom-induced coagulation. Briefly, 100 ng of each venom was incubated at 37° C. for 30 min in the presence or absence of inhibitors (150 μM to 150 nM final concentrations). […] The samples were pipetted in triplicate into 384-well plates, and absorbance monitored at 595 nm for 2 h at 25° C. on an Omega FLUOstar instrument. We calculated the maximum clotting velocity of each of the curves as per clot waveform analysis^67, by calculating the maximum of the first derivative. […]

In series [3] the test system is metalloproteinase activity of C. atrox, C. adamanteus and C. horridus venom. As to the kind of experiment: In vitro snake venom metalloproteinase assay, North American rattlesnake venoms. As to conditions: 25 μM drug, 1 μg venom, range across the three rattlesnake venoms. Type of series: biochemical, Crotalus atrox, Crotalus adamanteus, Crotalus horridus. The text has this:
FIG. 6. […] Error bars represent standard deviation.
The remaining assay protocol with respects to fluorogenic substrate preparation, plate-read settings and data processing was the same as described above.
These species were selected for their clinical importance in the USA, namely: 1) Crotalus atrox (Western diamondback), which is found across the southwest USA and into Mexico and is thought to be the most common cause of snakebite envenoming in USA, 2) Crotalus horridus (Timber rattlesnake), which is found across Eastern and central USA, and is categorised as a Group I medically important snake by the World Health Organization. Furthermore, this species is not included in the immunising mixture of the current FDA-approved CroFab antivenom. 3) Crotalus adamanteus (Eastern diamondback), which is another Group I medically important snake, found in the South-East USA.

For series [4] the following is noted: cited from earlier work.
In another series the test system is S. miliarius venom. As to the kind of experiment: Murine preincubation model of venom lethality, North American pit viper venom. Type of series: in vivo, CD-1 mice. As to conditions: 2.5×LD50 S. miliarius venom preincubated with 60 μg of each drug, i.v., 6 h, n=5. The method, then:
Thereafter, the same murine animal model was used to explore the efficacy of the same snake venom metalloproteinase and phospholipase A2 inhibiting drugs as solo and combination treatments against North American pit viper venoms. The intravenous median lethal dose (venom LD50) for C. atrox, C. scutulatus, S. miliariius and A. contortrix venoms was previously determined (3.79 μg, 0.17 μg, 4.87 μg and 4.99 μg per mouse, respectively). […] As described above, all experimental doses were prepared to a volume of 200 μl in PBS and incubated at 37° C. for 30 min prior to their intravenous injection via the tail vein. Animals were monitored for 6 h, and euthanized via rising concentrations of CO2 upon observation of previously defined humane end points that are predicators of lethality (e.g., seizure, pulmonary distress, paralysis, hemorrhage). Deaths, time of death, and survivors were recorded; where death/time of death represents the implementation of euthanasia based on defined humane end points.
These snake species were selected for their taxonomic diversity and clinical importance in the USA, namely: 1) Crotalus atrox (Western diamondback), which is found across the southwest USA and into Mexico and is thought to be the most common cause of snakebite envenoming in USA, 2) Crotalus scutulatus (Mojave rattlesnake), which is also found across the southwest USA and into Mexico, 3) Sistrurus miliarius (pygmy rattlesnake), which is found in the South-East USA, and 4) Agkistrodon contortrix (Eastern copperhead), which is found in central and eastern USA. […] The drug treatments consisted of: DMPS, marimastat, or varespladib as solo drug treatments, or a DMPS and varespladib combination, or a marimastat and varespladib combination.

Like-named read-outs stand apart in the source and are kept apart here.

This is an account of results in US12285408B2, “Methods and compositions for the treatment of snake bite” (priority 2021, dated 2025).

As a reminder, the IC50 is the point on the concentration scale where inhibition reaches its midpoint. As for `O=S(=O)(O)CC(S)CS` (stereo not shown) [DMPS, 2,3-dimercapto-1-propanesulfonic acid], the “neutralization of procoagulant activities” value in series [1] (E. ocellatus, E. carinatus and B. asper venoms, highest dose 150 μM) is recorded as “effective at neutralizing the procoagulant activities”. Further, the IC50 in series [1] was 800 to 25900 nM. For the same compound, the “effect on procoagulant activity of whole D. russelii venom” value in series [2] is “ineffective”. Besides, in series [3], the “inhibition of metalloproteinase activity” value is 88.6-97.8%.

By half-life is commonly meant the time needed for the level to fall by half in the phase considered. Regarding `CNC(=O)[C@@H](NC(=O)[C@H](CC(C)C)[C@H](O)C(=O)NO)C(C)(C)C` [marimastat], the IC50 in series [1] fell in the range of 150 to 1920 nM. Moreover, in series [4] (human, in vivo, po), the oral bioavailability was 70% and the “oral bioavailability (words)” value was “excellent oral bioavailability”. In addition, in series [4] (human, in vivo, po, listed as Marimastat), the “oral bioavailability (words)” value is recorded as “particularly good oral bioavailability”. In series [4] (oral), the half-life was 8 to 10 h and the “time to peak plasma concentrations post-administration” value was 1.5 to 3 h. Also, the “effect on procoagulant activity of whole D. russelii venom” value in series [2] is given as “revealed clear venom anticoagulant effects”. Further, the “inhibition of metalloproteinase activity” value in series [3] is on record as 90.9-99.1%. Further, the “protection against venom lethality” value in the series on S. miliarius venom is recorded as “some protection”.

Regarding `CCc1c(C(=O)C(N)=O)c2c(OCC(=O)O)cccc2n1Cc1ccccc1` [varespladib], the half-life in series [4] (delivered by iv infusion) was 5 h. The “oral bioavailability (words)” value in series [4] (human, in vivo, po) is “good oral bioavailability”. Further, in the series on S. miliarius venom, the “protection against venom lethality” value is on record as “survived for longer periods of time than the venom only controls”.
